The test system of assay [1] is PC3/PSC27 tumors. The assay can be described thus: Preclinical treatment trial, PC3/PSC27 xenograft tumor volume. Type of assay: in vivo, mice.
The test system of assay [2] is PC3-only tumors. Nature of the assay: Preclinical treatment trial, PC3-only tumor volume. Type of assay: in vivo, mice. The note with it: single agents; absence of stromal cells.
Method: All experimental mouse experiments were performed strictly following the relevant regulations of the experimental animals. Immuno-deficient mice(NOD-SCID mice, ICR) (body weight about 25 g) aged 6-8 weeks were used for animal experiments related to the present patent. Stromal cells PSC27 and epithelial cells PC3 were mixed at a predetermined ratio of 1:4, and each graft contained 1.25×10^6 cells for tissue remodeling. The xenograft tumors were implanted into mice by subcutaneous transplantation, and the animals were euthanized 8 weeks after the end of the transplantation surgery. Tumor volume was calculated according to the following formula: V=(π/6)×((1+w)/2)^3 (V, volume; 1, length; w, width). In a preclinical treatment trial, subcutaneously transplanted mice were fed with a standard experimental diet, after 2 weeks chemotherapy drugs mitoxantrone (MIT, dose: 0.2 mg/kg) and/or Rutin (500 μl, dose: 10 mg/kg), Rapamycin (500 μl, dose: 10 mg/kg) via intraperitoneal administration. The time points are as follows: all three drugs were administered to mice on the first day of the third, fifth and seventh weeks. A total of 3 cycles of administration was carried out throughout the course of treatment, and each cycle lasted for 2 weeks. After the course of treatment, mouse tumors were harvested for volume measurement and histological analysis. […] The chemotherapy experiment ended at the end of the 8th week, and the mice were dissected immediately after sacrifice, and the xenograft tumors were collected and used for pathological system analysis.
Assay [3] has as its system SASP factors, p16^INK4a, p21^CIP1. The assay can be described thus: qRT-PCR of SASP factors and senescence markers in tumor-bearing sites. Type of assay: in vivo, mice.
From the text: Varying expression levels of transcripts between the groups of a set of typical SASP molecules in tumor-bearing sites of mice according to the detection and analysis of fluorescent quantitative PCR (qRT-PCR). Data in each group is normalized for the sample with the lowest expression value within the group. IL6, IL8, AREG and ILla are included. […] Varying expression levels of transcripts between the groups of another set of typical SASP molecules in tumor-bearing sites of mice according to the detection and analysis of fluorescent quantitative PCR (qRT-PCR). Data in each group is normalized for the sample with the lowest expression value within the group. MMP1, MMP3, ANGPTL4 and SPINK1 are included. […] Varying expression levels of transcripts between the groups of a set of cellular senescence-specific biomarkers in tumor-bearing sites of mice according to the detection and analysis of fluorescent quantitative PCR (qRT-PCR). […] After the reaction was completed, the amplification of each gene was checked by software analysis, the corresponding threshold cycle number was derived, and the relative expression of each gene was calculated using the 2-ΔΔCt method. The peak and waveform of the melting curve was analyzed to determine whether the obtained amplification product was a specific single target fragment.
In assay [4] the test system is PC3/PSC27 tumors. The assay can be described thus: SA-β-Gal staining of PC3/PSC27 tumor tissue. Type of assay: in vivo, mice. The conditions noted are these: PC3/PSC27 tumor lesions.
Method: Comparison of cell senescence in PC3/PSC27 tumor-bearing animal lesions in preclinical experiments. Representative pictures after SA-β-Gal staining. […] Senescence-associated β-galactosidase (SA-β-Gal) staining was performed following a previously reported procedure (Debacq-Chainiaux et al., 2009). Briefly, cells in culture dishes were washed with PBS and fixed at room temperature. Cells were fixed in 2% formaldehyde and 0.2% glutaraldehyde for 3 minutes. SA-β-Gal was used for staining with freshly prepared staining solution overnight at 37° C. Images were taken on the next day and the percentage of positive cells per unit area was calculated.
In assay [5] the test system is PC3/PSC27 xenografts. Nature of the assay: DNA damage and apoptosis of cancer cells in PC3/PSC27 xenografts. The note with it: tumors dissected 7 days after initiation of treatment. Type of assay: in vivo, mice.
In assay [6] the test system is AREG. The assay can be described thus: ELISA of circulating serum SASP proteins. Type of assay: in vivo, mice. The conditions noted are these: mouse serum. Background: In an ELISA, binding on a coated surface is turned into a signal by an enzyme label.
Method: (§1) FIG. 41. Circulating serum proteins of SASP typical factors in mice were examined using ELISA. Left, AREG. Right, EREG. […] The time points are as follows: all three drugs were administered to mice on the first day of the third, fifth and seventh weeks. A total of 3 cycles of administration was carried out throughout the course of treatment, and each cycle lasted for 2 weeks. After the course of treatment, mouse tumors were harvested for volume measurement and histological analysis. […] The chemotherapy experiment ended at the end of the 8th week, and the mice were dissected immediately after sacrifice, and the xenograft tumors were collected and used for pathological system analysis. […] For alternative chemotherapeutics, vincristine or vinblastine (dose: 1.0 mg/kg) is administered intraperitoneally.
Assay [7] concerns EREG. The assay can be described thus: ELISA of circulating serum SASP proteins. The note with it: mouse serum. Type of assay: in vivo, mice.
Method: as §1
Assay [8] relates to MDA-MB-231/HBF1203 tumors. The assay can be described thus: Breast cancer xenograft treatment trial. Type of assay: in vivo, mice. The conditions noted are these: end of 8th week.
Assay [9] has as its system PSC27 cells. The assay can be described thus: SA-β-Gal staining of PSC27 cells. Type of assay: cell-based, human. The conditions noted are these: BLEO 50 μg/ml induces senescence, rutin tested on proliferating and BLEO-induced senescent cells.
Assay [10] concerns PSC27 cells. Nature of the assay: BrdU incorporation of PSC27 cells. Type of assay: cell-based, human. The note with it: BLEO 50 μg/ml induces senescence, rutin tested on proliferating and BLEO-induced senescent cells. (In general: Incorporation of labelled thymidine or its analogues reports DNA synthesis.)
Assay [11] deals with IL8 (interleukin 8). Nature of the assay: NMA library screen: expression of SASP factor IL8 in PSC27 cells. The note with it: senescent PSC27 cells. Type of assay: cell-based, human.
Assay [12] concerns SASP factors. The assay can be described thus: qRT-PCR of typical SASP factors in BLEO-induced senescent PSC27 cells. The note with it: IL6, IL8, IL1a, IL1β, CXCL3, MMP3, GM-CSF, 20-100 μM tested. Type of assay: cell-based, human. A general note: Real-time PCR tracks product formation cycle by cycle.
Assay [13] concerns PSC27 cells. Nature of the assay: RNA-seq / GSEA of PSC27 cells. Type of assay: cell-based, human. The protocol: Whole-transcriptome sequencing was performed on the primary human prostate stromal cell line PSC27 under different treatment conditions. Total RNA samples were obtained from stromal cells. Their integrity was verified by Bioanalyzer 2100 (Agilent), RNA was sequenced by Illumina HiSeq X10, and gene expression levels were quantified by software package […]/). Briefly, rRNA was depleted from RNA samples with the RiboMinus Eukaryote Kit (Qiagen, Valencia, CA, USA); and according to the manufacturer's instructions, TruSeq Stranded Total RNA Preparation Kits (Illumina, San Diego, CA, USA) was used to construct a strand-specific RNA-seq library before deep sequencing. Paired-end transcriptomic reads were mapped to a reference genome (GRCh38/hg38), and reference-annotation was performed from Gencode v27 using the Bowtie tool. Duplicate reads were identified using the picard Tools (1.98) script to mark duplicates (https://github.com/broadinstitute/picard), and only non-duplicate reads were retained. Reference splice junctions were provided by reference transcriptome (Ensembl Build 73). FPKM values were calculated with Cufflinks, and Cufflinks maximum likelihood estimation function was used to call differential gene expression. […] Next, Trim Galore (v0.3.0) (http://www.bioinformatics.babraham.ac.uk/projects/trim_galore/) was used to trim the reads, while the quality assessment was carried out by using FastQC (v0.10.0) (http://www.bioinformatics.bbsrc.ac.uk/projects/fastqc/). Subsequently, DAVID bioinformatics platform ( ) and ingenuity Pathways Analysis (IPA) program (http://www.ingenuity.com/index.html) were used. A preliminary analysis of the raw data was performed on a free online platform, Majorbio I-Sanger Cloud Platform (www.i-sanger.com) and the raw data were deposited in the NCBI Gene Expression Omnibus (GEO) database with access code GSE156448. Based on the data obtained from the preliminary analysis of RNA-seq, after analyzing and comparing each differentially expressed significant gene, the genes were sorted using the “wald statistics” obtained from DESeq2. GSEA was performed on the sorting lists of all planning gene sets available in MSigDB (http://software.broadinstitute.org/gsea/msigdb). DESeq2 independent filtering was based on the average of normalized read counts to select genes with very low expression levels. The SASP and GSEA signature were as described in our previous publication (Zhang et al., 2018a).

The subject of assay [14] is ATM, TAK1, p38MAPK, PI3K/Akt/mTOR, IL8. Nature of the assay: Immunoblot of DDR pathways and SASP expression in PSC27 cells. Type of assay: cell-based, human. The conditions noted are these: for ATM activation / phosphorylation: BLEO-induced senescence, with or without rutin.
Assay [15] has as its system TRAF6-TAK1 interaction. The assay can be described thus: p-TAK1-mediated IP and immunoblot in PSC27 cells. Type of assay: cell-based, human. The conditions noted are these: BLEO and/or rutin.
The target of assay [16] is ATM and TRAF6 interaction (Homo sapiens, UniProt Q13315+Q9Y4K3). Nature of the assay: p-ATM-mediated IP and immunoblot in PSC27 cells. The note with it: BLEO and/or rutin. Type of assay: cell-based.
In assay [17] the target is ATM and HIF1α interaction (Homo sapiens, UniProt Q13315+Q16665). Nature of the assay: p-ATM-mediated IP and immunoblot in PSC27 cells. Type of assay: cell-based. The note with it: BLEO and/or rutin.
The subject of assay [18] is p65 and p50 (NF-κB). The assay can be described thus: Immunoblot after separation of the nucleoplasm, PSC27 cells. Type of assay: cell-based, human.
Method: Immunoblot analysis of cell lysates of PSC27 cells upon BELO and/or rutin intervention after separation of the nucleoplasm. C, cytoplasmic; N; Nuclear. Lamin A/C, loading control for nuclear proteins. GAPDH, loading control for cytoplasmic proteins. Cell lysate-derived proteins were separated using NuPAGE 4-12% Bis-Tris gel and transferred to nitrocellulose membranes (Life Technologies). The blot was blocked with 5% skimmed milk for 1 h at room temperature, incubated overnight at 4° C. with the desired primary antibody at the manufacturer's protocol concentration, and then incubated with horseradish peroxidase-conjugated secondary antibody (Santa Cruz) for 1 h. Blot signal detection was carried out with enhanced chemiluminescence (ECL) detection reagent (Millipore) according to the manufacturer's protocol, and ImageQuant LAS 400 Phospho-Imager (GE Healthcare) was used. As a standard protein marker, PageRuler Plus Prestained Protein Ladder (no. 26619) from Thermo Fisher Scientific was used by the inventors.
Assay [19] concerns PSC27 cells. The assay can be described thus: ROS production in PSC27 cells with DCFH-DA. Type of assay: cell-based, human. An excerpt: FIG. 23. Measurement of Reactive Oxygen Species (ROS) production in PSC27 cells under various conditions with DCFH-DA, a fluorescent reagent. Left, representative images, scale bar, […]; Right, comparative statistics.
Assay [20] deals with PC3, DU145, M12 and LNCaP. The assay can be described thus: Proliferation, migration and invasion of prostate cancer cells cultured with PSC27 conditioned media. The conditions noted are these: rutin final concentration 100 μM. Type of assay: cell-based, human.
The test system of assay [21] is PC3, DU145, M12 and LNCaP. Nature of the assay: Drug resistance of prostate cancer cells cultured with PSC27 conditioned media. The conditions noted are these: rutin final concentration 100 μM. Type of assay: cell-based, human.
The test system of assay [22] is PC3 cells. The assay can be described thus: Dose-response curves of PC3 cells with PSC27-BLEO CM exposed to MIT. Type of assay: cell-based, human. The conditions noted are these: PC3 exposed to MIT at 0.1-1.0 μM; rutin 100 μM.
In assay [23] the test system is PC3/PSC27 tumors. The assay can be described thus: Xenografts of PC3 with PSC27 sublines (naive, senescent, pretreated). Type of assay: in vivo. The note with it: PC3 + PSC27^SEN recombinants, SCID mice, 8 weeks, p<0.0001.
Where [24] appears, read: FIG. 14, senescence induction and rutin intervention, P<0.01, Fold change>4.
Setting [25] is: senescent PSC27 upon rutin, 2-fold change of log 2-based, p<0.01.

Chain of ATM and TRAF6 interaction (Q13315 2-3056 limits assumed): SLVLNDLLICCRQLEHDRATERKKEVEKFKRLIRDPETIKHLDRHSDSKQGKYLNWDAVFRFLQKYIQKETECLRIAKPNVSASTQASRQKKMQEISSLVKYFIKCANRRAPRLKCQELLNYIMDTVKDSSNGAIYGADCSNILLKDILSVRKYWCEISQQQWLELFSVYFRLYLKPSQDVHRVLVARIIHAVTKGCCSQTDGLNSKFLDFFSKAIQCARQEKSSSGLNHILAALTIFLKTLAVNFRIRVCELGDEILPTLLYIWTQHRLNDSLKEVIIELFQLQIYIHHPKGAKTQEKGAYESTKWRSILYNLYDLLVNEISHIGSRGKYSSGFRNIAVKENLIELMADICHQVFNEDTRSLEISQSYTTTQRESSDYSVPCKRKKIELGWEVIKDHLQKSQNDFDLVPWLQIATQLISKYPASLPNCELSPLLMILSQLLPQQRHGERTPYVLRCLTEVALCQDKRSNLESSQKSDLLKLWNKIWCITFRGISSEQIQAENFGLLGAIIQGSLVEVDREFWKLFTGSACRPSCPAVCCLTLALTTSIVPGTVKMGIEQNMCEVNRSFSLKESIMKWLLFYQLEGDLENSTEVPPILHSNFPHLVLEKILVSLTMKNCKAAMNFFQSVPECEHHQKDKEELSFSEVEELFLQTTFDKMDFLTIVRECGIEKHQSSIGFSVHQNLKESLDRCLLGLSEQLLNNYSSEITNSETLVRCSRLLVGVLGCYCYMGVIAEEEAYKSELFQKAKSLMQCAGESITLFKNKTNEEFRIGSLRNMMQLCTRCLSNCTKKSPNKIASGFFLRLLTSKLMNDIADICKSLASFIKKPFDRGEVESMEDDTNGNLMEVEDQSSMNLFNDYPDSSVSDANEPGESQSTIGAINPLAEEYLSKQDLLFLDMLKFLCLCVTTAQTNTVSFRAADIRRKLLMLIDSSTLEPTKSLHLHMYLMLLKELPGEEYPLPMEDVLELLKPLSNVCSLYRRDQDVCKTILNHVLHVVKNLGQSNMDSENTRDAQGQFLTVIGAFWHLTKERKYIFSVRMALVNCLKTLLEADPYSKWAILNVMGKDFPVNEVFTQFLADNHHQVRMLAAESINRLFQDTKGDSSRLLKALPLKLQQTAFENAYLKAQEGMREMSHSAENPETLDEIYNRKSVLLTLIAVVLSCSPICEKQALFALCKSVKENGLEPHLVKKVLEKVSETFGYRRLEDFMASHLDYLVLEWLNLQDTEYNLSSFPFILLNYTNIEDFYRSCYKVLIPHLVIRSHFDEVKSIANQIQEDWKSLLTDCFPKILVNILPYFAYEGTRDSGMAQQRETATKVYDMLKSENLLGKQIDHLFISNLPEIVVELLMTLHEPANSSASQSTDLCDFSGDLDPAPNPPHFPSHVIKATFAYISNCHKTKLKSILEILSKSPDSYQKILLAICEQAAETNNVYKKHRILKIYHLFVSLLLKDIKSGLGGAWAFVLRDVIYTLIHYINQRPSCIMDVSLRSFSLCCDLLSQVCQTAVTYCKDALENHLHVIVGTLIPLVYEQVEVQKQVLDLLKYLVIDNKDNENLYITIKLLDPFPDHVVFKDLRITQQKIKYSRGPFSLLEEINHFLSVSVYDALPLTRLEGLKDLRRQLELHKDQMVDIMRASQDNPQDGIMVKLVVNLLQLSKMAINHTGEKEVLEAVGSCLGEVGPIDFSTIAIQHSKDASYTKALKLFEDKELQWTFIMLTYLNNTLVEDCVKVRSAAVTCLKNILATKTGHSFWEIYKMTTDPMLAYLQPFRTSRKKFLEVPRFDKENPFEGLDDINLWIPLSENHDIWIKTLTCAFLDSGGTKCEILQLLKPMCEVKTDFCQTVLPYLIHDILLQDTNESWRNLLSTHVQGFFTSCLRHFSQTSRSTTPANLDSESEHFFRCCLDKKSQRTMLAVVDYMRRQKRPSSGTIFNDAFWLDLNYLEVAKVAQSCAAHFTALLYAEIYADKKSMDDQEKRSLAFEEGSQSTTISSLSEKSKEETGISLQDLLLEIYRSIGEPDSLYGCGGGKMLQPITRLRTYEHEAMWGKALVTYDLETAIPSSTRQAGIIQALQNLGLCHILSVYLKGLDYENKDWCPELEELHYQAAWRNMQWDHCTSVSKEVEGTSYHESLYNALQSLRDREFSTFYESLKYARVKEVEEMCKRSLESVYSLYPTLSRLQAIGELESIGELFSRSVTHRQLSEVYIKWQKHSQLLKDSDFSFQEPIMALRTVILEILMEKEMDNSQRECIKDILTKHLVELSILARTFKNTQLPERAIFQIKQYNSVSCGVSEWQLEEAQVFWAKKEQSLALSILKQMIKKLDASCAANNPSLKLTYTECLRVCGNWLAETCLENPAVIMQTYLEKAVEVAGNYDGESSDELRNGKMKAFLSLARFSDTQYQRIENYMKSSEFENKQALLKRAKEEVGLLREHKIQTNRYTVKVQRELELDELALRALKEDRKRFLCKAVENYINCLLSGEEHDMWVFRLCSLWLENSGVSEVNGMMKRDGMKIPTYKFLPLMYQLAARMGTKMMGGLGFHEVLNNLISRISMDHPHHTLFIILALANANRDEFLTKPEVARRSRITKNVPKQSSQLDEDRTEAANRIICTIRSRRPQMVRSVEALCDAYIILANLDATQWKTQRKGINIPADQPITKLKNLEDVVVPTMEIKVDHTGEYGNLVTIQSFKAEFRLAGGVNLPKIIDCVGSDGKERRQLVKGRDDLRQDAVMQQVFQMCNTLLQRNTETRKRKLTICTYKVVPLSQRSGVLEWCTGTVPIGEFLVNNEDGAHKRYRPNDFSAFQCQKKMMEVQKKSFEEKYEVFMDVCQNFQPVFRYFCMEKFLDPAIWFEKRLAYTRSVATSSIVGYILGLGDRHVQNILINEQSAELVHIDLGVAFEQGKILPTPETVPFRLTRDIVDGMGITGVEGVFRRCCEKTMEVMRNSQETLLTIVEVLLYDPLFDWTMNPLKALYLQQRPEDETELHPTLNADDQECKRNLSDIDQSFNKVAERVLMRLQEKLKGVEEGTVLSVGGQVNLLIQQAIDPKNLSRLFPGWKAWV
Chain of ATM and TRAF6 interaction (Q9Y4K3 whole entry): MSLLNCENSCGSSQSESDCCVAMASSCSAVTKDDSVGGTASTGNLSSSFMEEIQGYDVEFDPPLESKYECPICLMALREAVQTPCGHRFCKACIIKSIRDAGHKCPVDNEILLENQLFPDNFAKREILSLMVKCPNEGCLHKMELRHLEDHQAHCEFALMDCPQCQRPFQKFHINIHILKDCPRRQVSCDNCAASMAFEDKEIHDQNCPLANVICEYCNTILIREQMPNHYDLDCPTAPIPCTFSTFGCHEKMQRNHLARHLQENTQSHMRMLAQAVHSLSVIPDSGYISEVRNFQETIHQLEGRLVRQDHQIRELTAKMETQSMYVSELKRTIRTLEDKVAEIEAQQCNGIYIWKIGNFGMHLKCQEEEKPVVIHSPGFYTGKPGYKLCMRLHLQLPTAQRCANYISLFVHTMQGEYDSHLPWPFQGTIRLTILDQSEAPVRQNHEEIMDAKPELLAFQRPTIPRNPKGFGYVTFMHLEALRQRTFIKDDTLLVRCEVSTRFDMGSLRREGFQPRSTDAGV
Chain of ATM and HIF1α interaction (Q13315 2-3056 limits assumed): as the sequence (Q13315 2-3056 limits assumed) above
Chain of ATM and HIF1α interaction (Q16665 whole entry): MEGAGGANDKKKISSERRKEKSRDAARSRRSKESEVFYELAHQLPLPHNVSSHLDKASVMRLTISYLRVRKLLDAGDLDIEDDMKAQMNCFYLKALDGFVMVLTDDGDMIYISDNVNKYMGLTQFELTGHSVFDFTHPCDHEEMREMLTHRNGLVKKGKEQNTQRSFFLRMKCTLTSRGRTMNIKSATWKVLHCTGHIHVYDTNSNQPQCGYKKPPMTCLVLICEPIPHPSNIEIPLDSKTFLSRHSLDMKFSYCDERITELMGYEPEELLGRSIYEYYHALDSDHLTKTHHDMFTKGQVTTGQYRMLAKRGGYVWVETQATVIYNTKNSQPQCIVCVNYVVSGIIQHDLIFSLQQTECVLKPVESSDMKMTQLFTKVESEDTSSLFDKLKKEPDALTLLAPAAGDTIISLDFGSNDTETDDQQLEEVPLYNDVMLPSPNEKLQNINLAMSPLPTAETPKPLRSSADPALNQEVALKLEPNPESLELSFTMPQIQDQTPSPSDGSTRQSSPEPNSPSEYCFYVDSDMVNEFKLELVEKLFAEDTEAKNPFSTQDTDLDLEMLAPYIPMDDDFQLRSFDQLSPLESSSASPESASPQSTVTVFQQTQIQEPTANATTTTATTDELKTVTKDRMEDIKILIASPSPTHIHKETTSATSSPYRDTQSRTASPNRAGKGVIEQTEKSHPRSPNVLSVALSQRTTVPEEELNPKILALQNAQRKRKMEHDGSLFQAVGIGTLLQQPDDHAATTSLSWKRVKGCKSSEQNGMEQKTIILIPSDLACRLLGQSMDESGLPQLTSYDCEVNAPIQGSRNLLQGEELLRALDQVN

With `O=C1c2c(O)ccc(O)c2C(=O)c2c(NCCNCCO)ccc(NCCNCCO)c21` [MIT, mitoxantrone], in [1] (8-week regimen, MIT on 1st day of 3rd, 5th, 7th week), the “tumor sizes in contrast to placebo” value is “remarkably reduced tumor sizes”. Moreover, the tumor volume decrease in assay [1] (PC3/PSC27 tumors, MIT alone, end of 8th week) was determined as 35.5%. Moreover, in [2], the “effect on PC3-only tumors” value is “caused shrinkage”. Moreover, the “expression of typical SASP factors in tumors” value in [3] (IL6, IL8, AREG, IL1a, MMP1, MMP3, ANGPTL4, SPINK1) is “significant upregulation”. For the same compound, the “typical senescence markers in tumors” value in [3] (p16^INK4a, p21^CIP1 and SA-β-GAL) is “induction”. Moreover, in assay [4], the “tissue senescence by SA-β-GAL staining” value is listed as “considerable tissue senescence”. In assay [5], the “DNA damage (DDR) in cancer cells” value is listed as “substantial” and the “apoptosis / cell death in cancer cells” value is “substantial”. In addition, the “circulating AREG level” value in assay [6] is recorded as “elevated levels”. Also, in assay [7], the “circulating EREG level” value was “elevated levels”.

For the compound `CC[C@]1(O)C[C@H]2CN(CCc3c([nH]c4ccccc34)[C@@](C(=O)OC)(c3cc4c(cc3OC)N(C=O)[C@H]3[C@@](O)(C(=O)OC)[C@H](OC(C)=O)[C@]5(CC)C=CCN6CC[C@]43[C@@H]65)C2)C1` [VIN, vincristine], the “outcome of combination of the chemotherapeutic drug with rutin and rapamycin” value in assay [8] is “did not exhibit the characteristics of effective drug combination therapy”.

Turning to `COc1cccc2c1C(=O)c1c(O)c3c(c(O)c1C2=O)C[C@@](O)(C(=O)CO)C[C@@H]3O[C@H]1C[C@H](N)[C@H](O)[C@H](C)O1` [doxorubicin], the “outcome of combination of the chemotherapeutic drug with rutin and rapamycin” value in assay [8] is “largely reproduced the results of preclinical experiments performed with PCa system”.

Consider `CO[C@H]1C[C@@H]2CC[C@@H](C)[C@@](O)(O2)C(=O)C(=O)N2CCCC[C@H]2C(=O)O[C@H]([C@H](C)C[C@@H]2CC[C@@H](O)[C@H](OC)C2)CC(=O)[C@H](C)/C=C(\C)[C@@H](O)[C@@H](OC)C(=O)[C@H](C)C[C@H](C)/C=C/C=C/C=C/1C` [rapamycin], for which the “effect on PC3-only tumors” value in assay [2] was “did not show a remarkable effect”.

Turning to `C[C@@H]1O[C@@H](OC[C@H]2O[C@@H](Oc3c(-c4ccc(O)c(O)c4)oc4cc(O)cc(O)c4c3=O)[C@H](O)[C@@H](O)[C@@H]2O)[C@H](O)[C@H](O)[C@H]1O` [rutin], in [9], the SA-β-Gal staining entry is “remained largely unchanged”. Also, in assay [10], the BrdU incorporation result is given as “remained largely unchanged”. Also, the “expression of interleukin 8 (IL8), a hallmark SASP factor (senomorphic potential)” value in [11] is “prominent efficacy in downregulating”. For the same compound, in assay [12], the “concentration with the most optimal effects in restraining expression of typical SASP components” value turned out to be 100 µM. In assay [13] (setting [24]), this compound returned a genes down-regulated of 3733 genes and a genes up-regulated of 886 genes. In addition, the “transcriptome-wide expression of SASP factors” value in [13] (RNA-seq, senescent PSC27 cells treated with rutin) was “most of the SASP factors were indeed downregulated”. In assay [13] (senescent PSC27 cells treated with rutin), the “GSEA SASP signature” value was “specifically and significantly inhibited SASP”. For the same compound, in assay [13] (setting [25]), the transcripts downregulated was 3733 transcripts, the transcripts significantly modified worked out at 4619 transcripts and the transcripts upregulated is listed as 886 transcripts. For the same compound, the “ATM activation / phosphorylation” value in [14] is given as “remained largely unaffected”. Further, the “TAK1 phosphorylation, p38MAPK activation, PI3K/Akt/mTOR activation and IL8 upregulation after BLEO” value in assay [14] (in the presence of rutin) was “generally diminished”. Besides, in [15], the “TAK1 activation and TRAF6-TAK1 interaction” value is reported as “considerably restrained”. For the same compound, the “interaction of ATM and TRAF6” value in assay [16] was “significantly weakens”. The “mutual interaction between ATM and HIF1α” value in assay [17] is “subject to interruption”. In addition, the “cytoplasm-to-nucleus translocation of p65 and p50 upon cellular senescence” value in assay [18] is “largely abolished”. The “ROS generation by senescent cells” value in assay [19] (PSC27, BLEO-induced senescent) is listed as “significantly suppressed”. In addition, the “production of ROS in proliferating cells” value in assay [19] (PSC27, proliferating) was “did not change”. Moreover, the “gain-of-functions (proliferation, migration, invasion; malignancy) conferred by CM from senescent PSC27 cells” value in assay [20] is on record as “almost completely disappeared”. Also, in assay [21], the “counteraction of the increase in cancer cell viability upon senescent stromal cell-derived CM” value is “about 80%”. In addition, the “cancer resistance conferred by the CM of senescent stromal cells” value in assay [22] is “remarkably downregulate cancer resistance”. Further, the “tumor volumes after pretreatment of PSC27^SEN cells in vitro” value in assay [23] is reported as “considerably reduced tumor volumes”. Moreover, the “effect on PC3-only tumors” value in assay [2] is “did not show a remarkable effect”. In addition, the “tissue senescence by SA-β-GAL staining” value in assay [4] is listed as “neither promote nor suppress senescence”.

With `CC[C@]1(O)C[C@H]2CN(CCc3c([nH]c4ccccc34)[C@@](C(=O)OC)(c3cc4c(cc3OC)N(C=O)[C@H]3[C@@](O)(C(=O)OC)[C@H](OC(C)=O)[C@]5(CC)C=CCN6CC[C@]43[C@@H]65)C2)C1` [vincristine], the “benefit of the chemotherapeutic drug from combined use of rutin and/or rapamycin” value in assay [1] (PC3 and PC3/PSC27 tumors) is listed as “did not show such benefits”.

Turning to bleomycin [reference compound], the SA-β-Gal staining entry in assay [9] is given as “elevated positivity”. For the same compound, in assay [10], the BrdU incorporation entry is recorded as “reduced BrdU incorporation”. In addition, the “ATM activation / phosphorylation” value in assay [14] was “markedly activated”. In [19] (PSC27 cells after BLEO genotoxicity), the “ROS levels in contrast to normal counterparts” value is given as “remarkably elevated ROS levels”.

The values above are taken from patent US20240358732A1, “Use of Rutin and Rapamycin in the Preparation of Synergistic Chemotherapy Drugs for Tumor Inhibition” (priority 2023, published 2024).
